This note sets out measurements from article PMC8972196, “A Set of Experimentally Validated Decoys for the Human CC Chemokine Receptor 7 (CCR7) Obtained by Virtual Screening” (Frontiers in Pharmacology, 2022).

Where two headings read alike, the source gives them in different places. A value given as a limit tells only on which side of the number the result lay.

The assay deals with T1, human CCR7 (Homo sapiens, UniProt P32248).
T1 construct: expressed in transfected cells
T1 sequence (P32248 25-378): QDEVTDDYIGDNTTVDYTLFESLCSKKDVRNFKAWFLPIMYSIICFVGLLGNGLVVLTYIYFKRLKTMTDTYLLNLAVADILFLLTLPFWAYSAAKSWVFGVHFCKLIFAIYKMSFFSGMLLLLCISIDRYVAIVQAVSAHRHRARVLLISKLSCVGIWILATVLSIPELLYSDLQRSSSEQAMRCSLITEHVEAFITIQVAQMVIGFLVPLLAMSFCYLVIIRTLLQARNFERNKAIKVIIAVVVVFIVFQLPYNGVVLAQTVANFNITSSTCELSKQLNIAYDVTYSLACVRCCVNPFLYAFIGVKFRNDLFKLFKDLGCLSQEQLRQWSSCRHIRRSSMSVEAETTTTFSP
As to the kind of experiment: CCL19-induced calcium mobilization assay, U87.CD4 cells expressing CCR7. In kind it is cell-based. In a few lines: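 Calcium mobilization was recorded in U87.CD4 cells stably carrying human CXCR2 (stimulated with CXCL8), CCR7 (stimulated with CCL19) or CCR5. Cells were plated at 20,000 cells/well, cultured overnight at 37°C in 5% CO2, and incubated 45 min at room temperature in the dark before reading.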

The mark [1] stands for this setting: CCL19 induced calcium signaling, read-out: IC50 [μM] block CCL19 induced calcium signaling.
The mark [2] stands for this setting: classification as decoy or active on CCR7.
Where [3] appears, read: CCL19-induced calcium signaling, read-out: IC50 [μM] block CCL19 induced calcium signaling.
The mark [4] stands for this setting: classification of tested compounds as decoy or active.

Usually IC50 stands for the concentration at which inhibition is half-maximal. In the case of `O=S(=O)(c1cccc(F)c1)N1CC(c2cccnc2)C(c2nc(C3CCCC3)no2)C1` (centres unmarked) [C246, c1cc(cc(c1)S(=O)(=O)N2CC(C(C2)c3nc(no3)C4CCCC4)c5cccnc5)F], the half-inhibitory concentration (IC50) under setting [1] is greater than 50 µM. In addition, under setting [2], the “Decoy – 0 Active – 1” value was determined as 0.

For `CNC(=O)c1cccc(NC(=O)NCC(C)(C)c2cccs2)c1C` [C126, CNC(=O)c1cccc(NC(=O)NCC(C)(C)c2cccs2)c1C], under setting [3], the IC50 was greater than 50 µM. Besides, the “Decoy – 0 Active – 1” value under setting [4] worked out at 0.

With `O=c1oc2ccccc2n1CCCN1CCCC1c1ccc(O)cc1` (centres unmarked) [C189, O=c1oc2ccccc2n1CCC[NH+]1CCCC1c1ccc(O)cc1], under setting [1], the half-inhibitory concentration (IC50) was greater than 50 µM. Moreover, under setting [2], the “Decoy – 0 Active – 1” value was determined as 0.

As for `CCc1ccc(S(=O)(=O)NC2Cc3cc(C(=O)NC(C)C)nn3C2)cc1` (centres unmarked) [C241, CCc1ccc(cc1)S(=O)(=O)NC2Cc3cc(nn3C2)C(=O)NC(C)C], the IC50 under setting [1] is greater than 50 µM. In addition, the “Decoy – 0 Active – 1” value under setting [2] is reported as 0.

For `CC[C@@H](NC(=O)c1cc(-c2cccc(OC)c2)n[nH]1)c1nc(C)c(C)s1` [C159, CC[C@@H](NC(=O)c1cc(-c2cccc(OC)c2)n[nH]1)c1nc(C)c(C)s1], the IC50 under setting [1] is greater than 50 µM. In addition, the “Decoy – 0 Active – 1” value under setting [2] is 0.

Turning to `O=C(NCC1(c2cccc(F)c2)CCCCC1)c1n[nH]c(=O)[nH]1` [C195, O=C(NCC1(c2cccc(F)c2)CCCCC1)c1n[nH]c(=O)[nH]1], the half-inhibitory concentration (IC50) under setting [1] is greater than 50 µM. Further, the “Decoy – 0 Active – 1” value under setting [2] is on record as 0.

With `CC(O)CNc1c(N2CCN(Cc3ccccc3Cl)CC2)c(=O)c1=O` (centres unmarked) [C007, CC(O)CNc1c(N2CC[NH+](Cc3ccccc3Cl)CC2)c(=O)c1=O], the IC50 is greater than 50 µM. Further, the “Decoy – 0 Active – 1” value under setting [4] turned out to be 0.

As for `COc1cccc(N(CC(=O)N2CCC(C(N)=O)CC2)S(=O)(=O)c2ccc(C)cc2)c1` [C253, Cc1ccc(cc1)S(=O)(=O)N(CC(=O)N2CCC(CC2)C(=O)N)c3cccc(c3)OC], the concentration for half-maximal inhibition (IC50) under setting [1] is greater than 50 µM. The “Decoy – 0 Active – 1” value under setting [2] is 0.

`CN(C)C1(CNc2c(N3CCN(Cc4ccccc4Cl)CC3)c(=O)c2=O)CCCC1` [C015, C[NH+](C)C1(CNc2c(N3CC[NH+](Cc4ccccc4Cl)CC3)c(=O)c2=O)CCCC1]: under setting [3], the half-inhibitory concentration (IC50) was greater than 50 µM. In addition, under setting [4], the “Decoy – 0 Active – 1” value was determined as 0.

`Cc1ccc(N=C(N)C(N)=Nc2ccc(C)cc2)cc1` [C065, Cc1ccc([NH+]=C(N)C(N)=[NH+]c2ccc(C)cc2)cc1]: the half-maximal inhibitory concentration (IC50) under setting [3] is greater than 10 µM. Besides, the “Decoy – 0 Active – 1” value under setting [4] is listed as 0.

For `Cc1sc(NC(=S)NC(=O)CCc2ccccc2)c(C(N)=O)c1C` [C029, Cc1sc(NC(=S)NC(=O)CCc2ccccc2)c(C(N)=O)c1C], the IC50 under setting [3] was greater than 30 µM. Besides, the “Decoy – 0 Active – 1” value under setting [4] came to 0.

As for `CCc1cc(C(=O)NCC(O)c2ccc(O)cc2)cc(=O)[nH]1` (centres unmarked) [C203, CCc1cc(C(=O)NCC(O)c2ccc(O)cc2)cc(=O)[nH]1], the IC50 under setting [1] is greater than 50 µM. Under setting [2], the “Decoy – 0 Active – 1” value was determined as 0.

With `C[C@@H](CNC(=O)N[C@H]1CCC[C@@H](S(C)(=O)=O)C1)c1cccs1` [C118, C[C@@H](CNC(=O)N[C@H]1CCC[C@@H](S(C)(=O)=O)C1)c1cccs1], the half-maximal inhibitory concentration (IC50) under setting [3] was greater than 50 µM. For the same molecule, the “Decoy – 0 Active – 1” value under setting [4] is reported as 0.

For the molecule `Cc1cccnc1[C@H](N[C@H]1CCN(CC(F)(F)F)C1=O)C(C)C` [C138, Cc1cccnc1[C@H]([NH2+][C@H]1CCN(CC(F)(F)F)C1=O)C(C)C], the IC50 under setting [3] was greater than 50 µM. Under setting [4], the “Decoy – 0 Active – 1” value is given as 0.

Take `CN1CCN(C(=O)c2ccc(CN(c3ccccc3)S(=O)(=O)c3ccccc3)cc2)CC1` [C234, C[NH+]1CCN(CC1)C(=O)c2ccc(cc2)CN(c3ccccc3)S(=O)(=O)c4ccccc4]: the IC50 under setting [1] was greater than 50 µM. Further, the “Decoy – 0 Active – 1” value under setting [2] is 0.

On to `C[C@@H](CNC(=O)Nc1ccnc(C(=O)N(C)C)c1)c1cccs1` [C119, C[C@@H](CNC(=O)Nc1ccnc(C(=O)N(C)C)c1)c1cccs1], for which, under setting [3], the 50% inhibitory concentration (IC50) was greater than 50 µM. Also, the “Decoy – 0 Active – 1” value under setting [4] is given as 0.

As to `COc1ccc(S(=O)(=O)N(CC(=O)Nc2cccc(OC)c2)c2ccccc2)cc1` [C245, COc1ccc(cc1)S(=O)(=O)N(CC(=O)Nc2cccc(c2)OC)c3ccccc3], the IC50 under setting [1] is greater than 50 µM. Also, the “Decoy – 0 Active – 1” value under setting [2] came out at 0.

Turning to `Cn1ccnc1[C@H](NC1=NS(=O)(=O)c2ccccc21)c1cccc(F)c1` [C153, Cn1ccnc1[C@H](NC1=NS(=O)(=O)c2ccccc21)c1cccc(F)c1], the concentration for half-maximal inhibition (IC50) under setting [3] is greater than 50 µM. Moreover, under setting [4], the “Decoy – 0 Active – 1” value came to 0.

For `NC(=O)CN1CC(CCN2CCCC2=O)c2ccccc21` (centres unmarked) [C214, NC(=O)CN1CC(CCN2CCCC2=O)c2ccccc21], under setting [1], the half-inhibitory concentration (IC50) is greater than 50 µM. Further, the “Decoy – 0 Active – 1” value under setting [2] worked out at 0.

In the case of `O=[N+]([O-])c1ccc(C(O)CNC(=S)NCc2ccc3c(c2)OCO3)cc1` (centres unmarked) [C030, OC(CNC(=S)NCc1ccc2OCOc2c1)c1ccc(cc1)[N+]([O-])=O], the 50% inhibitory concentration (IC50) under setting [3] was greater than 30 µM. The “Decoy – 0 Active – 1” value under setting [4] was 0.

Take `Cc1ccc(NC=C2C(=O)CC(c3ccco3)CC2=O)cc1` (centres unmarked) [C071, Cc1ccc(NC=C2C(=O)CC(c3ccco3)CC2=O)cc1]: under setting [3], the IC50 was greater than 10 µM. For the same molecule, under setting [4], the “Decoy – 0 Active – 1” value amounted to 0.

As for `O=C(O)c1nc[nH]c1C(=O)NC(c1ccccc1)c1ccco1` (centres unmarked) [C190, O=C([O-])c1nc[nH]c1C(=O)NC(c1ccccc1)c1ccco1], the IC50 under setting [1] is greater than 50 µM. Moreover, the “Decoy – 0 Active – 1” value under setting [2] worked out at 0.

Regarding `CC(C)(C(=O)NC1CCC(C(=O)O)C1)c1cccc(F)c1` (centres unmarked) [C210, CC(C)(C(=O)NC1CCC(C(=O)[O-])C1)c1cccc(F)c1], the IC50 under setting [1] was greater than 50 µM. Besides, the “Decoy – 0 Active – 1” value under setting [2] was 0.

Consider `Cc1cccc(CN2CCC[C@H](Nc3ccc(C)c(C)c3)C2)n1` [C083, Cc1cccc(C[N@H+]2CCC[C@H](Nc3ccc(C)c(C)c3)C2)n1], for which the concentration for half-maximal inhibition (IC50) under setting [3] was greater than 50 µM. Further, under setting [4], the “Decoy – 0 Active – 1” value is recorded as 0.

With `O=C(NCC(=O)N1CCCC1c1ccc2c(c1)OCO2)c1cc2ccccc2[nH]1` (centres unmarked) [C285, O=C(NCC(=O)N1CCCC1c1ccc2c(c1)OCO2)c1cc2ccccc2[nH]1], the half-inhibitory concentration (IC50) under setting [1] was greater than 50 µM. Also, the “Decoy – 0 Active – 1” value under setting [2] was 0.

For the molecule `CC1CCc2ccccc2C1NC(=O)CCC(=O)N1CCC(O)CC1` (centres unmarked) [C221, CC1CCc2ccccc2C1NC(=O)CCC(=O)N1CCC(O)CC1], the IC50 under setting [1] is greater than 50 µM. Moreover, the “Decoy – 0 Active – 1” value under setting [2] amounted to 0.

For `COc1cccc(N(CC(=O)Nc2cccc([N+](=O)[O-])c2)S(=O)(=O)c2ccc(C)cc2)c1` [C255, Cc1ccc(cc1)S(=O)(=O)N(CC(=O)Nc2cccc(c2)[N+](=O)[O-])c3cccc(c3)OC], under setting [1], the IC50 was greater than 50 µM. The “Decoy – 0 Active – 1” value under setting [2] was found to be 0.

`CC(C)[C@@H](NC(=O)CCN1CCCCCC1=O)c1ccccc1` [C112, CC(C)[C@@H](NC(=O)CCN1CCCCCC1=O)c1ccccc1]: the IC50 under setting [3] was greater than 50 µM. Also, under setting [4], the “Decoy – 0 Active – 1” value was 0.

`Cc1cccc(C2(C(=O)NC3CCC(=O)N(C)C3)CCCC2)c1` (centres unmarked) [C220, Cc1cccc(C2(C(=O)NC3CCC(=O)N(C)C3)CCCC2)c1]: the half-maximal inhibitory concentration (IC50) under setting [1] is greater than 50 µM. Besides, the “Decoy – 0 Active – 1” value under setting [2] is reported as 0.

As for `Cc1ccc(S(=O)(=O)N2c3ccccc3CC2CO)cc1[N+](=O)[O-]` (centres unmarked) [C266, Cc1ccc(cc1[N+](=O)[O-])S(=O)(=O)N2c3ccccc3CC2CO], under setting [1], the IC50 was greater than 50 µM. The “Decoy – 0 Active – 1” value under setting [2] is 0.

For `COc1ccc(CC(C)(O)CNC(=O)NCc2cccc3ccccc23)cc1` (centres unmarked) [C192, COc1ccc(CC(C)(O)CNC(=O)NCc2cccc3ccccc23)cc1], under setting [1], the concentration for half-maximal inhibition (IC50) is greater than 50 µM. The “Decoy – 0 Active – 1” value under setting [2] was determined as 0.
